Molecules are shown by their SMILES. Counter-ions that a name gives are not always drawn.

T1 sequence (P41594 21-1212): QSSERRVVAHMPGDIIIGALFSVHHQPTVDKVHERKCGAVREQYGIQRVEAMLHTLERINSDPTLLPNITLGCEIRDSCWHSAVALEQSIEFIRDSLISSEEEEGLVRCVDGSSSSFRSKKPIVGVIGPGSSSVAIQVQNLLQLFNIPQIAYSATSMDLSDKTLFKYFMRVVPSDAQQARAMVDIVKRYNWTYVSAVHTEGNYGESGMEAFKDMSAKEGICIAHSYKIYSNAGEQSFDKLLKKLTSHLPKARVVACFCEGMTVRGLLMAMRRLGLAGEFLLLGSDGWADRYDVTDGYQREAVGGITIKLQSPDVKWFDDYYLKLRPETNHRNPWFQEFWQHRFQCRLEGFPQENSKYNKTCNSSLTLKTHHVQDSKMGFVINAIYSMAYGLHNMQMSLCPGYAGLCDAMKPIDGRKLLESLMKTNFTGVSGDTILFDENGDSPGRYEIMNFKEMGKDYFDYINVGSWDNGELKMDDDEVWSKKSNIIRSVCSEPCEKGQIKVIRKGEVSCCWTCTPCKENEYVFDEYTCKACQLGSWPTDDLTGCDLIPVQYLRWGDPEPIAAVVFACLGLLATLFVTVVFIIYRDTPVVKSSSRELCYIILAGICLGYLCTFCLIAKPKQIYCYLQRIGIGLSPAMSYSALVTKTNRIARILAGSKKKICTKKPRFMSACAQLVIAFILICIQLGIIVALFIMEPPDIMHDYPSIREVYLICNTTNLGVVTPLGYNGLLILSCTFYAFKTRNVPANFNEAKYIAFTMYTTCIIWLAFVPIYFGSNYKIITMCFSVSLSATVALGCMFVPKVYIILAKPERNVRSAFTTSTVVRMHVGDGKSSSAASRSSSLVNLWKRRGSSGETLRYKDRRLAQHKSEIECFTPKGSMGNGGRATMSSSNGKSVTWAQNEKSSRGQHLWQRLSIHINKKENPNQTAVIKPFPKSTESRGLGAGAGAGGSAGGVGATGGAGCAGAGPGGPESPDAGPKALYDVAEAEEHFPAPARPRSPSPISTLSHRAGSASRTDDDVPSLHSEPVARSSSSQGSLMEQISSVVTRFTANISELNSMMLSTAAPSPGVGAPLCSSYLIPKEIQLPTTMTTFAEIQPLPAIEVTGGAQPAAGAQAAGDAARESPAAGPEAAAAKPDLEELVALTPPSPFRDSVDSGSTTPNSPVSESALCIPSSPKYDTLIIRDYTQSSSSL

This experiment concerns the target T1, human mGluR5 (Homo sapiens, UniProt P41594).
T1 construct: expressed in transfected cells
As to the kind of experiment: Experiment for receptor function of mGluR5 (Ca2+-dependent fluorescence, FLIPR, CHO-K1 cells stably expressing human mGluR5). In kind it is cell-based. The conditions noted are these: L-glutamic acid 10 μM, Fluo-4 fluorescence. The method, then:
Stable expression cells in which the human mGluR5 gene had been introduced into a Chinese hamster ovary cell (CHO-K1) were used for evaluation. The cells were suspended in a growth medium (MEM-α (D8042, available from Sigma) containing 10% inactivated FBS (Cat. No. 171012, available from CCB) and 2 mM glutamax (Cat. No. 35050, available from GIBCO)) and seeded on a black clear-bottom 96-well plate at 100,000 cells per well. One day after seeding, the medium was replaced by a medium (Hanks' balanced salt solution (HBSS buffer solution) (20 mM HEPES, 2.5 mM probencide (165-15472, available from Wako Pure Chemical Industries, Ltd.), and 10×HBSS (14065-056, available from Gibco) diluted 10 times, pH 7.4)) containing a calcium-sensitive dye Fluo-4 AM at a final concentration of […] (F312, available from Dojindo Laboratories) and Pluronic F-127 at a final concentration of 0.0145% (P-2443, available from Sigma), followed by incubation at 37° C. for one hour, thereby loading Fluo-4 AM into the cells.
Subsequently, the cells were washed twice with an HBSS buffer solution, to which was subsequently added the same buffer solution. Twenty minutes thereafter, the plate was transferred into a fluorescence screening system (FLIPR TETRA, available from Molecular Devices, LLC) and measured for a Ca^2+-dependent fluorescence change in the cells.
First of all, a fluorescence baseline was measured, and thereafter, fluorescence measurement was performed for 2 minutes while adding a test substance, an excessive amount of 6-methyl-2-(phenylethynyl)pyridine (hereinafter referred to as “MPEP”) (final concentration: 10 μM), or the medium. Thereafter, fluorescence measurement was carried out for one minute while adding L-glutamic acid (final concentration: 10 μM).
While taking a fluorescence intensity caused by L-glutamic acid as 100% and a fluorescence intensity caused by L-glutamic acid in the presence of MPEP as 0%, respectively, function inhibitory activity against human mGluR5 was evaluated from the fluorescence intensity caused by L-glutamic acid in the presence of the test substance at each concentration, and an IC50 value was estimated according to a logistic equation (SAS System).
By IC50 is commonly meant the concentration needed to halve the response being measured. Read a low IC50 as higher potency. In the case of `c1cncc(-c2cc(OCc3ncco3)nc3c2CCCC3)c1` [Example 91, 2-(1,3-Oxazol-2-ylmethoxy)-4-(pyridin-3-yl)-5,6,7,8-tetrahydroquinoline], the IC50 was 16.9 nM.

For the compound `Cc1coc(COc2cc(-c3cccnc3)c3c(n2)CCCC3)n1` [Example 92, 2-[(4-Methyl-1,3-oxazol-2-yl)methoxy]-4-(pyridin-3-yl)-5,6,7,8-tetrahydroquinoline], the IC50 is 40.1 nM.

`c1cncc(-c2cc(OCc3nccs3)nc3c2CCCC3)c1` [Example 94, 4-(Pyridin-3-yl)-2-(1,3-thiazol-2-ylmethoxy)-5,6,7,8-tetrahydroquinoline hydrochloride] yielded an IC50 of 75 nM.

For `Cc1csc(COc2cc(-c3cccnc3)c3c(n2)CCCC3)n1` [Example 95, 2-[(4-Methyl-1,3-thiazol-2-yl)methoxy]-4-(pyridin-3-yl)-5,6,7,8-tetrahydroquinoline], the IC50 was found to be 42 nM.

Compound `Cc1nc(COc2cc(-c3cccnc3)c3c(n2)CCCC3)cs1` [Example 96, 2-[(2-Methyl-1,3-thiazol-4-yl)methoxy]-4-(pyridin-3-yl)-5,6,7,8-tetrahydroquinoline] yielded an IC50 of 56.3 nM.

For the compound `Fc1ccc(-c2cc(OCc3ccccn3)nc3c2CCCC3)cn1` [Example 101, 4-(6-Fluoropyridin-3-yl)-2-(pyridin-2-ylmethoxy)-5,6,7,8-tetrahydroquinoline dihydrochloride], the IC50 was 23.4 nM.

Take `COc1cncc(-c2cc(OCc3ccccn3)nc3c2CCCC3)c1` [Example 102, 4-(5-Methoxypyridin-3-yl)-2-(pyridin-2-ylmethoxy)-5,6,7,8-tetrahydroquinoline hydrochloride]: the half-maximal inhibitory concentration (IC50) came to 51.2 nM.

As to `N#Cc1ccc(-c2cc(OCc3ccccn3)nc3c2CCCC3)cn1` [Example 104, 5-[2-(Pyridin-2-ylmethoxy)-5,6,7,8-tetrahydroquinolin-4-yl]pyridine-2-carbonitrile hydrochloride], it took 51.7 nM to reach half-maximal inhibition (IC50).

Regarding `Fc1cncc(-c2cc(OCc3ccccn3)nc3c2CCCC3)c1` [Example 107, 4-(5-Fluoropyridin-3-yl)-2-(pyridin-2-ylmethoxy)-5,6,7,8-tetrahydroquinoline hydrochloride], the IC50 turned out to be 81.2 nM.

`N#Cc1cncc(-c2cc(OCc3ccccn3)nc3c2CCCC3)c1` [Example 113, 5-[2-(Pyridin-2-ylmethoxy)-5,6,7,8-tetrahydroquinolin-4-yl]pyridine-3-carbonitrile hydrochloride] had an IC50 of 68.8 nM.

Compound `CC(=O)c1cncc(-c2cc(OCc3ccccn3)nc3c2CCCC3)c1` [Example 115, 1-{5-[2-(Pyridin-2-ylmethoxy)-5,6,7,8-tetrahydroquinolin-4-yl]pyridin-3-yl}ethanone dihydrochloride] displayed an IC50 of 98.7 nM.

`COC(=O)c1cncc(-c2cc(OCc3ccccn3)nc3c2CCCC3)c1` [Example 116, Methyl 5-[2-(pyridin-2-ylmethoxy)-5,6,7,8-tetrahydroquinolin-4-yl]pyridine-3-carboxylate]: the IC50 was 133 nM.

`CN(C)C(=O)c1cncc(-c2cc(OCc3ccccn3)nc3c2CCCC3)c1` [Example 120, N,N-Dimethyl-5-[2-(pyridin-2-ylmethoxy)-5,6,7,8-tetrahydroquinolin-4-yl]pyridine-3-carboxamide hydrochloride] had an IC50 of 206 nM.

For `OCc1cncc(-c2cc(OCc3ccccn3)nc3c2CCCC3)c1` [Example 122, {5-[2-(Pyridin-2-ylmethoxy)-5,6,7,8-tetrahydroquinolin-4-yl]pyridin-3-yl}methanol hydrochloride], the IC50 worked out at 72.7 nM.

On to `COCc1cncc(-c2cc(OCc3ccccn3)nc3c2CCCC3)c1` [Example 123, 4-[5-(Methoxymethyl)pyridin-3-yl]-2-(pyridin-2-ylmethoxy)-5,6,7,8-tetrahydroquinoline hydrochloride], for which the IC50 was found to be 58.8 nM.

Take `Nc1cncc(-c2cc(OCc3ccccn3)nc3c2CCCC3)c1` [Example 124, 5-[2-(Pyridin-2-ylmethoxy)-5,6,7,8-tetrahydroquinolin-4-yl]pyridin-3-amine]: the midpoint of inhibition, the IC50, lay at 24.8 nM.

For the compound `CNc1cncc(-c2cc(OCc3ccccn3)nc3c2CCCC3)c1` [Example 125, N-Methyl-5-[2-(pyridin-2-ylmethoxy)-5,6,7,8-tetrahydroquinolin-4-yl]pyridin-3-amine], half-maximal inhibition (IC50) required 45.6 nM.

`CN(C)c1cncc(-c2cc(OCc3ccccn3)nc3c2CCCC3)c1` [Example 126, N,N-Dimethyl-5-[2-(pyridin-2-ylmethoxy)-5,6,7,8-tetrahydroquinolin-4-yl]pyridin-3-amine] came in with an IC50 of 99.8 nM.

Turning to `Fc1ccc(COc2cc(-c3cccnc3F)c3c(n2)CCCC3)nc1` [Example 138, 4-(2-Fluoropyridin-3-yl)-2-[(5-fluoropyridin-2-yl)methoxy]-5,6,7,8-tetrahydroquinoline hydrochloride], the midpoint of inhibition, the IC50, lay at 95 nM.

With `Fc1cccc(COc2cc(-c3cncnc3)c3c(n2)CCCC3)n1` [Example 144, 2-[(6-Fluoropyridin-2-yl)methoxy]-4-(pyrimidin-5-yl)-5,6,7,8-tetrahydroquinoline], the IC50 was 19.4 nM.

In turn, `Fc1ccc(COc2cc(-c3cncnc3)c3c(n2)CCCC3)nc1` [Example 145, 2-[(5-Fluoropyridin-2-yl)methoxy]-4-(pyrimidin-5-yl)-5,6,7,8-tetrahydroquinoline] displayed an IC50 of 74 nM.

In the case of `Fc1ccnc(COc2cc(-c3cncnc3)c3c(n2)CCCC3)c1` [Example 146, 2-[(4-Fluoropyridin-2-yl)methoxy]-4-(pyrimidin-5-yl)-5,6,7,8-tetrahydroquinoline], the IC50 amounted to 176 nM.

`N#Cc1cccc(COc2cc(-c3cncnc3)c3c(n2)CCCC3)n1` [Example 149, 6-({[4-(Pyrimidin-5-yl)-5,6,7,8-tetrahydroquinolin-2-yl]oxy}methyl)pyridine-2-carbonitrile] registered a concentration for half-maximal inhibition (IC50) of 19.3 nM.

`N#Cc1ccc(COc2cc(-c3cncnc3)c3c(n2)CCCC3)nc1` [Example 150, 6-({[4-(Pyrimidin-5-yl)-5,6,7,8-tetrahydroquinolin-2-yl]oxy}methyl)pyridine-3-carbonitrile] showed an IC50 of 63 nM.

On to `N#Cc1ccnc(COc2cc(-c3cncnc3)c3c(n2)CCCC3)c1` [Example 151, 2-({[4-(Pyrimidin-5-yl)-5,6,7,8-tetrahydroquinolin-2-yl]oxy}methyl)pyridine-4-carbonitrile], for which the IC50 was determined as 439 nM.

Take `Cc1cccc(COc2cc(-c3cncnc3)c3c(n2)CCCC3)n1` [Example 152, 2-[(6-Methylpyridin-2-yl)methoxy]-4-(pyrimidin-5-yl)-5,6,7,8-tetrahydroquinoline]: the IC50 was found to be 44.8 nM.

For the compound `Cc1cccnc1COc1cc(-c2cncnc2)c2c(n1)CCCC2` [Example 153, 2-[(3-Methylpyridin-2-yl)methoxy]-4-(pyrimidin-5-yl)-5,6,7,8-tetrahydroquinoline], the IC50 turned out to be 316 nM.

Turning to `FC(F)(F)c1cccc(COc2cc(-c3cncnc3)c3c(n2)CCCC3)n1` [Example 154, 4-(Pyrimidin-5-yl)-2-{[6-(trifluoromethyl)pyridin-2-yl]methoxy}-5,6,7,8-tetrahydroquinoline hydrochloride], inhibition was half-maximal at 280 nM (IC50).

Turning to `Nc1cccc(COc2cc(-c3cncnc3)c3c(n2)CCCC3)n1` [Example 157, 6-({[4-(Pyrimidin-5-yl)-5,6,7,8-tetrahydroquinolin-2-yl]oxy}methyl)pyridin-2-amine], inhibition was half-maximal at 333 nM (IC50).

The record behind these values is patent publication US20150225404A1, “PYRIDINE DERIVATIVE AND MEDICINE” (NIPPON SHINYAKU CO., LTD., priority 2012, published 2015).
